According to patent US20100331248A1, “COMPOSITIONS AND METHODS FOR TREATING DIABETES USING LISOFYLLINE AND ISLET NEOGENESIS ASSOCIATED PEPTIDE” (DIAKINE THERAPEUTICS, INC., priority 2008, published 2010):
“Also recorded” adds a separate entry of the source. Where two headings read alike, the source gives them in different places. Ends that are not written are not given here.

What was measured:
[1] = system: NOD mice with spontaneous diabetes; experiment: Therapy regimen of LSF and INGAP in spontaneously diabetic NOD mice maintained on insulin pellets; assay type: in vivo; conditions: for blood glucose levels (non-fasting) at the end of treatments: FIG. 3, diabetic NOD mice, LSF 27 mg/kg/day continuous sc infusion, INGAP 500 μg qd ip; for remission rate of diabetes: FIG. 5, diabetic NOD mice observed after all therapy stopped
Protocol: The following example illustrates a therapy regimen (FIG. 1) involving INGAP peptide and LSF for building and preserving β-cell mass and increasing insulin production in a mammal. NOD mice were monitored for diabetes by measuring blood glucose levels. Mice were allowed to develop spontaneous diabetes, which usually occurs around the age of 18 weeks. Non-fasting blood glucose levels >250 mg/dL measured for 3 different days was considered evidence of diabetes onset. Shortly after diagnosing diabetes, the NOD mice received an insulin pellet implanted subcutaneously in order to maintain them during the treatment period of 6 to 7 weeks. The pellet provides 0.1 U/d of bovine insulin. The mice were then assigned to one of 5 treatment groups: Group 1—Normal saline via continuous subcutaneous infusion (placebo). The saline was delivered via an implantable subcutaneous osmotic mini-pump. The mice received the placebo for 4 weeks and continued on insulin for another 2 weeks. The insulin was then stopped, and the mice observed to determine if the treatment was effective. Group 2—LSF (27 mg/kg/day via continuous subcutaneous infusion) alone. The LSF was delivered via an implantable subcutaneous osmotic mini-pump. The mice received LSF for 4 weeks, continued on insulin for another 2 weeks, and then observed to determine if the treatment was effective. Group 3—INGAP (500 μg qd ip) alone. The mice received INGAP and insulin for 6 weeks, the treatment was then stopped, and the mice observed to determine if the treatment was effective. Group 4—LSF (27 mg/kg/day via continuous subcutaneous infusion) plus INGAP (500 μg qd ip) administered concomitantly. The LSF was delivered via an implantable subcutaneous osmotic mini-pump. The mice received LSF for 4 weeks and INGAP and insulin for 6 weeks. The treatments were then stopped and the mice observed to determine if the treatment was effective. Group 5—LSF (27 mg/kg/day via continuous subcutaneous infusion) for a week of pretreatment as monotherapy. Here the immune system was first treated to ‘cool it off’ so that any new islets would be growing in a less hostile environment. INGAP was then added to the treatment regimen (at 500 μg qd ip) and administered concomitantly with the LSF for an additional 5 weeks. LSF treatment was discontinued at week 6. INGAP and Insulin were continued for 1 more week until week 7. All therapy was then discontinued and the mice observed to determine if the treatment was effective. See treatment timeline depicted in FIG. 2.

[2] = system: non-obese diabetic (NOD) mice; conditions: LSF alone, when hyperglycemia became detectable; cited from earlier work
[3] = cited from earlier work
[4] = system: streptozotocin-induced diabetic mice; conditions: cited from earlier work

| Molecule | blood glucose levels (non-fasting) at the end of treatments [1] | remission rate of diabetes [1] | reversal of autoimmune diabetes [2] | safety in clinical studies ([3]; clinical studies, open IND on file with FDA) | insulin production of treated animals ([1]; FIG. 15) | effect on islet formation and glycemia [4] | safety in clinical studies ([3]; in vivo) |
| --- | --- | --- | --- | --- | --- | --- | --- |
| C[C@@H](O)CCCCn1c(=O)c2c(ncn2C)n(C)c1=O [LSF, 1-(5-R-hydroxyhexyl)-3,7-dimethylxanthine] | little or no effect | no remission; also recorded: No mice | did not reverse | safe | – | – | – |
| IGLHDPSHGTLPNGS [INGAP] | little or no effect | 10% | – | – | producing insulin | restore euglycemia | safe |
